Data published in PMC5702903 (CPT: Pharmacometrics & Systems Pharmacology, 2017).

Experiments:
[1] = Drug transport clearance at the brain cell membrane in the PBPK model; parameters: species or system rat; details: comparison of QBCM_in/QBCM_out with QBBB_in/QBBB_out
[2] = Empirical plasma PK model; type: in vivo, rat; details: for clearance: rat, plasma, iv
[3] = source not given; cited from earlier work
[4] = Asymmetry factors; parameters: species or system rat; details: for AFin2, asymmetry factor: into CSFLV at BCSFB1; for AFin2, asymmetry factor / AFout2, asymmetry factor: calculated from Kp,uu,CSFLV; for AFin3, asymmetry factor: into CSFTFV at BCSFB2; for AFin3, asymmetry factor / AFout3, asymmetry factor: calculated from Kp,uu,CSFCM; for AFin1, asymmetry factor: into brainECF at BBB; for AFin1, asymmetry factor / AFout1, asymmetry factor: calculated from Kp,uu,brainECF; for AFout2, asymmetry factor: out from CSFLV at BCSFB1; for AFout3, asymmetry factor: out from CSFTFV at BCSFB2; for AFout1, asymmetry factor: out from brainECF at BBB
[5] = Free fraction in brain; type: in vitro ADME; details: rat
[6] = rat; cited from earlier work
[7] = ref fu,p references of Table SI; cited from earlier work
[8] = source not given; cited from earlier work; remark: listed apart in the source
[9] = rat plasma PK model, estimate (RSE, %)
[10] = rat plasma PK model, parameter estimate (RSE, %)

| Structure (SMILES) | what limits the transport clearance from brainMV, via brainECF, to brainICF [1] | ɷ_CLPL, interindividual variability [2, 9] | ɷ_QPL_PER2, interindividual variability [2, 9] | ɷ_VPL, interindividual variability [2, 9] | VPER1, distribution volume of the peripheral compartment 1 [2, 10] | VPER2, distribution volume of the peripheral compartment 2 [2, 10] | VPL, distribution volume of the central compartment [2, 10] | clearance [2] [mL/min] | Charge class [3] | ɷ_QPL_PER1, interindividual variability [2, 9] | ɷ_VPER1, interindividual variability [2, 9] | AFin2, asymmetry factor [4] | AFin3, asymmetry factor [4] | AFin1, asymmetry factor [4] | AFout2, asymmetry factor [4] | AFout3, asymmetry factor [4] | AFout1, asymmetry factor [4] | other results |
| --- | --- | --- | --- | --- | --- | --- | --- | --- | --- | --- | --- | --- | --- | --- | --- | --- | --- | --- |
| CN(Cc1cnc2nc(N)nc(N)c2n1)c1ccc(C(=O)N[C@@H](CCC(=O)O)C(=O)O)cc1 [Methotrexate] | limited by QBCM_in and QBCM_out | 37.4 (46.8) % | 42.5 (42.0) % | 40.4 (75.5) % | 111 (14.6) mL | 83.5 (34.9) mL | 28.0 (55.0) mL | 8.04 | Acid | – | – | – | – | – | – | – | – | – |
| CCN1CCC[C@H]1CNC(=O)c1c(OC)ccc(Br)c1OC [Remoxipride] | – | 31.0 (12.0) % | 76.7 (13.5) % | 64.1 (32.9) % | 253 (10.9) mL | 757 (4.00) mL | 83.7 (18.3) mL | 42.2 | Base | 25.1 (12.1) % | – | – | – | – | – | – | – | – |
| C=C[C@H]1C[N@@]2CC[C@H]1C[C@@H]2[C@@H](O)c1ccnc2ccc(OC)cc12 [Quinidine] | – | 23.9 (15.3) % | – | – | – | – | – | – | – | 24.3 (28.2) % | 12.8 (26.6) % | – | – | – | – | – | – | – |
| Cc1nc2n(c(=O)c1CCN1CCC(c3noc4cc(F)ccc34)CC1)CCCC2O (stereo not drawn) [Paliperidone] | limited by QBBB_in and QBBB_out | 42.0 (62.5) % | – | 47.5 (81.4) % | 3,580 (35.8) mL | – | 26,400 (12.6) mL | 196 | Base | – | – | 1.0 | 1.0 | 1.0 | 3.7 | 4.7 | 3.0 | fraction unbound [5]: 0.065; pKa (acid) [3]: 13.7; Kp,uu,CSFCM, unbound CSFCM-to-plasma concentration ratio [6]: 0.50; Kp,uu,CSFLV, unbound CSFLV-to-plasma concentration ratio [6]: 0.50; Kp,uu,brainECF, unbound brain extracellular fluid-to-plasma concentration ratio [6]: 0.50 |
| CC(=O)Nc1ccc(O)cc1 [Acetaminophen] | – | – | – | – | 363 (33.1) mL | – | 49.5 (59.0) mL | – | Neutral | – | 51.8 (86.0) % | – | – | – | – | – | – | Fraction, percentage of the drug which is reabsorbed by enterohepatic circulation [2, 10]: 0.693 (19.6); fu,p, free fraction in plasma [7]: 0.81 |
| CC(C)NCC(O)COc1ccc(CC(N)=O)cc1 (stereo not drawn) [Atenolol] | – | – | – | – | – | – | – | – | Base | – | – | – | – | – | – | – | – | – |
| O=C1NC(=O)C(c2ccccc2)(c2ccccc2)N1 [Phenytoin] | limited by QBBB_in and QBBB_out | 73.8 (12.5) % | – | 75.0 (27.2) % | 2,050 (7.50) mL | – | 943 (21.5) mL | 36 | Neutral | – | – | 1.0 | 1.0 | 1.0 | 7.6 | 7.7 | 4.2 | fu,b, free fraction in brain [8]: 0.080; Kp,uu,CSFCM, unbound CSFCM-to-plasma concentration ratio [6]: 0.26; Kp,uu,CSFLV, unbound CSFLV-to-plasma concentration ratio [6]: 0.26; Kp,uu,brainECF, unbound brain extracellular fluid-to-plasma concentration ratio [6]: 0.26 |
| Cc1nc2n(c(=O)c1CCN1CCC(c3noc4cc(F)ccc34)CC1)CCCC2 [Risperidone] | limited by QBBB_in and QBBB_out | 72.5 (38.7) % | – | 53.7 (78.8) % | – | – | 43,100 (28.1) mL | 886 | Base | – | – | 1.0 | 1.0 | 1.0 | 1.3 | 1.5 | 1.3 | fu,b, free fraction in brain [8]: 0.065 |
| CN1CC[C@]23c4c5ccc(O)c4O[C@H]2[C@@H](O)C=C[C@H]3[C@H]1C5 [Morphine] | – | 17.8 (39.5) % | 86.7 (19.3) % | 80.6 (17.2) % | – | – | – | – | Base | 28.8 (29.4) % | 46.0 (15.3) % | – | – | – | – | – | – | ɷ_study1, interoccasional variability [2, 9]: 42.7 (16.2) %; ɷ_study2, interoccasional variability [2, 9]: 29.7 (30.5) % |
| CCN1CCC[C@H]1CNC(=O)c1c(O)c(Cl)cc(Cl)c1OC [Raclopride] | limited by QBBB_in and QBBB_out | 14.4 (29.8) % | – | – | 684 (19.2) mL | 493 (18.3) mL | 48.9 (16.3) mL | 46.4 | Zwitterion | – | – | 1.0 | 1.0 | 1.0 | 1.1 | 1.9 | 1.4 | pKa (acid) [3]: 5.9; pKa (base) [3]: 9.0 |
